According to patent EP1377579B1 (Aventis Pharmaceuticals Inc., priority 2000, dated 2002):
Counter-ions that a name gives are not always drawn.

Assays:
cdk4/cyclin D1 = cdk4/cyclin D1 (Homo sapiens, UniProt P11802); assay: Cyclin-dependent kinase assay, cdk4/cyclin D1; format: biochemical; conditions: cyclin D1/cdk4; GST-pRb substrate, 10 µM ATP
MDA-MB-435 = assay: In vitro proliferation assay (MTT), MDA-MB-435; format: cell-based, human; conditions: Homo sapiens, MDA-MB-435, MTT assay; value (SD, n) where given; read-out: MB-435 Breast (IC50 µM)
Summary of the method: (§1)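 IC50 values come from absorbance at 570 nm after MTT staining of cells grown with compound for 3 days. Seeding density was 1000 to 2500 cells/well, depending on the line.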

PC-3 = assay: In vitro proliferation assay (MTT), PC-3; format: cell-based, human; conditions: Homo sapiens, PC-3, MTT assay; value (SD, n) where given; read-out: PC-3 Prostate (IC50 µM)
Summary of the method: as §1

cdk1/cyclin B = cdk1/cyclin B (Homo sapiens, UniProt P06493); assay: Cyclin-dependent kinase assay, cdk1/cyclin B; conditions: CDK1 IC50, nM, Histone H1, 10 µM ATP
Sequence of cdk1/cyclin B (P06493 whole entry): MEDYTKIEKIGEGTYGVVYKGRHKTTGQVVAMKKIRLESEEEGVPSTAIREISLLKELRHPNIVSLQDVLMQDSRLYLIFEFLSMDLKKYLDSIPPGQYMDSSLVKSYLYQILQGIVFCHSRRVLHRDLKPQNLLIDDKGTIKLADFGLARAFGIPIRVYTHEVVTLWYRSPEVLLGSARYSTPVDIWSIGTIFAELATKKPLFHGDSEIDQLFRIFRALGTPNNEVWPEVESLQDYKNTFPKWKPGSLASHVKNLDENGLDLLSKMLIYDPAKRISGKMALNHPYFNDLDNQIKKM
Sequence of cdk1/cyclin B (P14635 whole entry partner): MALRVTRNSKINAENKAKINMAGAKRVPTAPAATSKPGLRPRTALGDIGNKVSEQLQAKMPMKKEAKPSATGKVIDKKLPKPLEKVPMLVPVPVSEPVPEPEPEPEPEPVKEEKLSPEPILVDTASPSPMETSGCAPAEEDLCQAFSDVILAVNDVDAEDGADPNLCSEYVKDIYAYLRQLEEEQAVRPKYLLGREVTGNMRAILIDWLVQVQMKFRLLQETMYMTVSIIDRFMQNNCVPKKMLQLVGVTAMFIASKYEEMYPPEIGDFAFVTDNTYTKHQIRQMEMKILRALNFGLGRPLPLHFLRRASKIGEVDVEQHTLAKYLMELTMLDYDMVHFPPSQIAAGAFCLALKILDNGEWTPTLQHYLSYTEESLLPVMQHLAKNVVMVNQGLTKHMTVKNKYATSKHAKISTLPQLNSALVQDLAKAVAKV

cdk2/cyclin E = cdk2/cyclin E (Homo sapiens, UniProt P24941); assay: Cyclin-dependent kinase assay, cdk2/cyclin E; conditions: CDK2 IC50, nM, GST-pRb substrate, 10 µM ATP

Sequence of cdk4/cyclin D1 (P11802 whole entry): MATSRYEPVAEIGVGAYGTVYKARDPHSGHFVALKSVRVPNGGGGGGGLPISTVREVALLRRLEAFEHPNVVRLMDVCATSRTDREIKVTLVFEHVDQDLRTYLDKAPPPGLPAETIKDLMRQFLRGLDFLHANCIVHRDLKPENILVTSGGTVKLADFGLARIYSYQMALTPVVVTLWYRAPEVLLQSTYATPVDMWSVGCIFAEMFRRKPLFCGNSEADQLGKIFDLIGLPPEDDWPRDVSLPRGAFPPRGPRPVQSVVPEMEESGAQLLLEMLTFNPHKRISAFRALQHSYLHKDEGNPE
Sequence of cdk4/cyclin D1 (P24385 whole entry partner): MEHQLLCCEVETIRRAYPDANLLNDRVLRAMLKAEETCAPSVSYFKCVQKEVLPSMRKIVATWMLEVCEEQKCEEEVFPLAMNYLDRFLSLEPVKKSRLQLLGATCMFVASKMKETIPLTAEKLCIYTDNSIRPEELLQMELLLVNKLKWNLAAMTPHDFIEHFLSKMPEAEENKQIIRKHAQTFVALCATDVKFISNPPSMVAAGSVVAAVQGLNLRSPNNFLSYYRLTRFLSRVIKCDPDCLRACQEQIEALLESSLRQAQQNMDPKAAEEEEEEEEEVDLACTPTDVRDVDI

| IC50 (cdk4/cyclin D1) | IC50 (MDA-MB-435) | IC50 (PC-3) | IC50 (cdk1/cyclin B) | IC50 (cdk2/cyclin E) | SMILES |
| --- | --- | --- | --- | --- | --- |
| 482 nM | 0.33 µM | 0.44 µM | 20 nM | 43 nM | COc1cccc(NC(=O)N2CCC(Nc3nc(N[C@H]4CC[C@H](N)CC4)nc4c3ncn4C3CCCC3)CC2)c1 [compound 155, trans-4-[2-(4-Amino-cyclohexylamino)-9-cyclopentyl-9H-purin-6-ylamino]-piperidine-1-carboxylic acid (3-methoxy-phenyl)-amide dihydrochloride] |
| 2040 nM | 2.54 µM | 3.34 µM | 310 nM | 32 nM | CC(C)NC(=O)N1CCC(Nc2nc(N[C@H]3CC[C@H](N)CC3)nc3c2ncn3C2CCCC2)CC1 [compound 157, trans-4-[2-(4-Amino-cyclohexylamino)-9-cyclopentyl-9H-purin-6-ylamino]-piperidine-1-carboxylic acid isopropylamide dihydrochloride] |
| 825 nM | 0.29 µM | 0.38 µM | 82 nM | 87 nM | N[C@H]1CC[C@H](Nc2nc(NC3CCN(C(=O)Nc4ccccc4C(F)(F)F)CC3)c3ncn(C4CCCC4)c3n2)CC1 [compound 158, trans-4-[2-(4-Amino-cyclohexylamino)-9-cyclopentyl-9H-purin-6-ylamino]-piperidine-1-carboxylic acid (2-trifluoromethyl-phenyl)-amide dihydrochloride] |
| 357 nM | 1.36 µM | 1.69 µM | 85 nM | 94 nM | C[C@@H](NC(=O)N1CCC(Nc2nc(N[C@H]3CC[C@H](N)CC3)nc3c2ncn3C2CCCC2)CC1)c1ccccc1 [compound 160, trans-4-[2-(4-Amino-cyclohexylamino)-9-cyclopentyl-9H-purin-6-ylamino]-piperidine-1-carboxylic acid ((R)-1-phenyl-ethyl)-amide dihydrochloride] |
| 601 nM | 1.01 µM | 0.96 µM | 56 nM | 78 nM | C[C@H](NC(=O)N1CCC(Nc2nc(N[C@H]3CC[C@H](N)CC3)nc3c2ncn3C2CCCC2)CC1)c1ccccc1 [compound 161, trans-4-[2-(4-Amino-cyclohexylamino)-9-cyclopentyl-9H-purin-6-ylamino]-piperidine-1-carboxylic acid ((S)-1-phenyl-ethyl)-amide dihydrochloride] |
| 739 nM | 5.03 µM | 4.99 µM | 151 nM | 86 nM | C=CCNC(=O)N1CCC(Nc2nc(N[C@H]3CC[C@H](N)CC3)nc3c2ncn3C2CCCC2)CC1 [compound 164, trans-4-[2-(4-Amino-cyclohexylamino)-9-cyclopentyl-9H-purin-6-ylamino]-piperidine-1-carboxylic acid allylamide dihydrochloride] |
| 63 nM | 0.28 µM | 0.38 µM | 4 nM | 54 nM | N[C@H]1CC[C@H](Nc2nc(NC3CCN(C(=O)Nc4ccc(Cl)cc4Cl)CC3)c3ncn(C4CCCC4)c3n2)CC1 [compound 167, trans-4-[2-(4-Amino-cyclohexylamino)-9-cyclopentyl-9H-purin-6-ylamino]-piperidine-1-carboxylic acid (2,4-dichloro-phenyl)-amide dihydrochloride] |
| 829 nM | 1.16 µM | 1.04 µM | 23 nM | 62 nM | N[C@H]1CC[C@H](Nc2nc(NC3CCN(C(=O)NC(=O)c4ccccc4)CC3)c3ncn(C4CCCC4)c3n2)CC1 [compound 172, trans-N-(1-{4-[2-(4-Amino-cyclohexylamino)-9-cyclopentyl-9H-purin-6-ylamino]-piperidin-1-yl}-methanoyl)-benzamide dihydrochloride] |

Second part, the molecule before the results:

| SMILES | IC50 (cdk4/cyclin D1) | IC50 (MDA-MB-435) | IC50 (PC-3) | IC50 (cdk1/cyclin B) | IC50 (cdk2/cyclin E) |
| --- | --- | --- | --- | --- | --- |
| COc1ccc(S(=O)(=O)N2CCC(Nc3nc(N[C@H]4CC[C@H](N)CC4)nc4c3ncn4C3CCCC3)CC2)cc1OC [compound 137, trans-N^2-(4-Amino-cyclohexyl)-9-cyclopentyl-N^6-[1-(3,4-dimethoxy-benzenesulfonyl)-piperidin-4-yl]-9H-purine-2,6-diamine dihydrochloride] | 144 nM | 0.47 µM | 1.15 µM | 26 nM | 7 nM |
| N[C@H]1CC[C@H](Nc2nc(NC3CCN(S(=O)(=O)c4ccc(Cl)c(Cl)c4)CC3)c3ncn(C4CCCC4)c3n2)CC1 [compound 138, trans-N^2-(4-Amino-cyclohexyl)-9-cyclopentyl-N^6-[1-(3,4-dichloro-benzenesulfonyl)-piperidin-4-yl]-9H-purine-2,6-diamine dihydrochloride] | 69 nM | 0.54 µM | 1.16 µM | 40 nM | 60 nM |
| CCS(=O)(=O)N1CCC(Nc2nc(N[C@H]3CC[C@H](N)CC3)nc3c2ncn3C2CCCC2)CC1 [compound 139, trans-N^2-(4-Amino-cyclohexyl)-9-cyclopentyl-N^6-(1-ethanesulfonyl-piperidin-4-yl)-9H-purine-2,6-diamine dihydrochloride] | 64 nM | 1.19 µM | 1.13 µM | 23 nM | 6 nM |
| N[C@H]1CC[C@H](Nc2nc(NC3CCN(S(=O)(=O)c4ccc(Cl)c([N+](=O)[O-])c4)CC3)c3ncn(C4CCCC4)c3n2)CC1 [compound 140, trans-N^2-(4-Amino-cyclohexyl)-N^6-[1-(4-chloro-3-nitro-benzenesulfonyl)-piperidin-4-yl]-9-cyclopentyl-9H-purine-2,6-diamine dihydrochloride] | 75 nM | 2.76 µM | 4.56 µM | 36 nM | 41 nM |
| CN(C)c1cccc2c(S(=O)(=O)N3CCC(Nc4nc(N[C@H]5CC[C@H](N)CC5)nc5c4ncn5C4CCCC4)CC3)cccc12 [compound 141, trans-N^2-(4-Amino-cyclohexyl)-9-cyclopentyl-N^6-[1-(5-dimethylamino-naphthalene-1-sulfonyl)-piperidin-4-yl]-9H-purine-2,6-diamine dihydrochloride] | 66 nM | 0.86 µM | 1.49 µM | 27 nM | 61 nM |
| COc1ccc(S(=O)(=O)N2CCC(Nc3nc(N[C@H]4CC[C@H](N)CC4)nc4c3ncn4C3CCCC3)CC2)cc1 [compound 142, trans-N^2-(4-Amino-cyclohexyl)-9-cyclopentyl-N^6-[1-(4-methoxy-benzenesulfonyl)-piperidin-4-yl]-9H-purine-2,6-diamine dihydrochloride] | 47 nM | 0.38 µM | 0.61 µM | < 5 nM | 9 nM |
| N[C@H]1CC[C@H](Nc2nc(NC3CCN(S(=O)(=O)c4ccccc4[N+](=O)[O-])CC3)c3ncn(C4CCCC4)c3n2)CC1 [compound 143, trans-N^2-(4-Amino-cyclohexyl)-9-cyclopentyl-N^6-[1-(2-nitro-benzenesulfonyl)-piperidin-4-yl]-9H-purine-2,6-diamine dihydrochloride] | 154 nM | 0.61 µM | 0.45 µM | 7.5 nM | 28 nM |
| CC(C)n1cnc2c(NC3CCN(S(=O)(=O)c4ccc(C#N)cc4)CC3)nc(N[C@H]3CC[C@H](N)CC3)nc21 [compound 145, trans-4-{4-[2-(4-Amino-cyclohexylamino)-9-isopropyl-9H-purin-6-ylamino]-piperidine-1-sulfonyl} -benzonitrile dihydrochloride] | 8800 nM | 4.12 µM | 6.32 µM | 21 nM | 70 nM |
| CCNC(=O)N1CCC(Nc2nc(N[C@H]3CC[C@H](N)CC3)nc3c2ncn3C2CCCC2)CC1 [compound 148, trans-4-[2-(4-Amino-cyclohexylamino)-9-cyclopentyl-9H-purin-6-ylamino]-piperidine-1-carboxylic acid ethylamide dihydrochloride] | 699 nM | 4.7 µM | 4.79 µM | 197 nM | 61 nM |
| COc1ccc(NC(=O)N2CCC(Nc3nc(N[C@H]4CC[C@H](N)CC4)nc4c3ncn4C3CCCC3)CC2)c(OC)c1 [compound 151, trans-4-[2-(4-Amino-cyclohexylamino)-9-cyclopentyl-9H-purin-6-ylamino]-piperidine-1-carboxylic acid (2,4-dimethoxy-phenyl)-amide dihydrochloride] | 391 nM | 0.44 µM | 0.5 µM | 60 nM | 32 nM |
| N[C@H]1CC[C@H](Nc2nc(NC3CCN(C(=O)Nc4cccc(F)c4)CC3)c3ncn(C4CCCC4)c3n2)CC1 [compound 152, trans-4-[2-(4-Amino-cyclohexylamino)-9-cyclopentyl-9H-purin-6-ylamino]-piperidine-1-carboxylic acid (3-fluoro-phenyl)-amide dihydrochloride] | 753 nM | 0.3 µM | 0.38 µM | 17 nM | 42 nM |
| COc1ccc(NC(=O)N2CCC(Nc3nc(N[C@H]4CC[C@H](N)CC4)nc4c3ncn4C3CCCC3)CC2)cc1 [compound 153, trans-4-[2-(4-Amino-cyclohexylamino)-9-cyclopentyl-9H-purin-6-ylamino]-piperidine-1-carboxylic acid (4-methoxy-phenyl)-amide dihydrochloride] | 444 nM | 0.38 µM | 0.45 µM | 20 nM | 30 nM |
